From patent publication US20240238228A1, “COMPOSITIONS AND METHODS FOR TREATING ALLERGIES AND INFLAMMATORY CONDITIONS” (UNIVERSITY OF PITTSBURGH-OF THE COMMONWEALTH SYSTEM OF …, priority 2021, published 2024)
No end group written: not given here.

Columns and labels:
[1] = target: calpain released into cell-free supernatants by IgE-activated murine BMMCs (murine) (UniProt O35350); experiment: cell-based or functional assay
IL-10 = IL-10 degradation assays on BMMC supernatants; type: cell-based, murine; settings: supernatants collected 10 min after activation, pulsed with Ac-calpastatin 30 min
Protocol: To detect early IL-10 release, 4×10^6 cells were incubated in serum free RPMI for a minimum of three hours prior to IgE loading and activation with DNP-HSA (100 ng/mL). Supernatants were collected and IL-10 was detected in accord with manufacturer's recommendations using 1.0% BSA to block and a top standard of 250 pg/mL. The lower limit of detection was 7.8 pg/mL. To evaluate the role of relationship between calpain and IL-10, cell-free supernatants were collected 10 min after activation and incubated with Ac-calpastatin (Ac-Cal; 20 μg/mL, Cayman) or vehicle control. […] To directly test IL-10 proteolysis, MCs were activated for 45 min, cell free supernatants were collected and pulsed with recombinant IL-10 (Biolegend, 250 pg/mL).

calpain = experiment: Calpain inhibition in cell-free BMMC supernatants pulsed with inhibitor; type: biochemical, murine; settings: Ac-calpastatin 20 μg/mL, 30 min; mean±SEM from n=3
Protocol: (§1) Calpain activity was detected from cell-free supernatants using the Calpain-Glo Protease Assay (Promega). Supernatants were incubated with substrate for 10 min prior to luminescent detection. In some experiments, glyburide or vehicle (0.1% DMSO) were added to cells 10 min prior to Ag. ELISA kits from eBioscience (IL-13), BioLegend, (TNF and IL-10) or RayBiotech (NKA) and used in accord with the manufacturer's recommendations.
To detect early IL-10 release, 4×10^6 cells were incubated in serum free RPMI for a minimum of three hours prior to IgE loading and activation with DNP-HSA (100 ng/mL). Supernatants were collected and IL-10 was detected in accord with manufacturer's recommendations using 1.0% BSA to block and a top standard of 250 pg/mL. The lower limit of detection was 7.8 pg/mL. To evaluate the role of relationship between calpain and IL-10, cell-free supernatants were collected 10 min after activation and incubated with Ac-calpastatin (Ac-Cal; 20 μg/mL, Cayman) or vehicle control. Ac-Cal containing supernatants were further incubated for 30 min prior to IL-10 quantification by ELISA. To directly test IL-10 proteolysis, MCs were activated for 45 min, cell free supernatants were collected and pulsed with recombinant IL-10 (Biolegend, 250 pg/mL).

MCs = settings: previous studies; cited from earlier work
peanut allergy = experiment: Peanut allergy desensitization by microneedle arrays; type: in vivo, mouse; settings: mouse, in vivo
IL-33 = settings: mouse, in vivo
NKA = NKA in skin homogenates by ELISA; type: in vivo, mouse; settings: IL-10 1.0 ng/ear; without PCA induction
Protocol: as §1
Mouse ears were measured with a micrometer then sensitized with IgE in filter-sterilized PBS (Sigma, clone SPE-7, 20 ng/50 μl/ear) or vehicle control. Twenty-four hours later mice were treated with NKA (10 μg/ear, intradermal) or vehicle (PBS) 3 h prior to Ag (DNP-HSA 100 μg, in 200 μl, intravenous in saline) administration. Data are presented as change in ear thickness between baseline and the indicated time. Where indicated, mice were treated with recombinant murine IL-10 (Peprotech, 1.0 ng/ear) at the time of IgE injection or treated with glyburide (2.5 mg/kg, i.p), 3 h prior to Ag administration.
Cytokine expression in the skin was investigated 24 h after PCA induction. […] Protein concentrations were quantified using the BCA Protein Assay (Pierce). […] Densitometry values subtracting the median background from individual spot areas were calculated with ImageStudioLite v5.2.5. […]

recombinant murine IL-10 = experiment: Degradation of recombinant IL-10 by purified calpain (Western blot); type: biochemical; settings: rIL-10 incubated with increasing concentrations of purified calpain, 60 min
Protocol: The IL-10 degrading capacity of calpain, recombinant murine IL-10 (Peprotech) was incubated with human calpain I (Athens Research and Technology) for 60 min at 37° C., then denatured with Laemelli Buffer (BioRad) and resolved on 10% Tris-Glycine SDS-PAGE gels (BioRad). Proteins were transferred to […] PVDF membranes (BioRad), blocked for 1 h with Odyssey Blocking Buffer (LI-COR) and probed overnight with goat anti-mouse IL-10 antibody (RnD Systems). Ant-IL10 was detected with donkey anti-goat 800CW (LI-COR) and visualized on a LI-COR Imaging System. Densitometry was calculated using ImageStudioLite v5.2.5 (Licor). Values are presented as (rIL-10+calpain)/rIL-10 alone)*100.

## Ac-calpastatin (Cayman) (from UniProt P20810 184-210) (peptide)
[1]
  calpain activity: 20.1%

## Ac-calpastatin: a calpain inhibitor (Cayman) (Ac-DPMSSTYIEELGKREVTIPPKYRELLA; not fully specified (C-terminus)) [reference compound]
IL-10
  IL-10 levels in supernatants from IgE-activated BMMCs: partially restored
calpain
  inhibition of calpain activity: 20.1±1.72%

## NKA(4-10): a naturally truncated form of NKA [reference compound]
MCs
  effect on MCs (β-hexosaminidase or histamine release as readouts): no effect

## botulinum toxin A
Peanut allergy
  allergy to peanut allergen after CPE challenge: desensitizes
IL-33
  IL-33 expression in skin: reduces IL-33 expression

B1: recombinant IL-10: recombinant murine IL-10 (Peprotech) (protein)
chain: SRGQYSREDNNCTHFPVGQSHMLLELRTAFSQVKTFFQTKDQLDNILLTDSLMQDFKGYLGCQALSEMIQFYLVEVMPQAEKHGPEIKEHLNSLGEKLKTLRMRLRRCHRFLPCENKSKAVEQVKSDFNKLQDQGVYKAMNEFDIFINCIEAYMMIKMKS
NKA
  steady state NKA in skin homogenates: significantly increased

B2: calpain: purified human calpain I (Athens Research and Technology), IL-10 degrading cysteine protease (protein)
chain: SEEIITPVYCTGVSAQVQKQRARELGLGRHENAIKYLGQDYEQLRVRCLQSGTLFRDEAFPPVPQSLGYKDLGPNSSKTYGIKWKRPTELLSNPQFIVDGATRTDICQGALGDCWLLAAIASLTLNDTLLHRVVPHGQSFQNGYAGIFHFQLWQFGEWVDVVVDDLLPIKDGKLVFVHSAEGNEFWSALLEKAYAKVNGSYEALSGGSTSEGFEDFTGGVTEWYELRKAPSDLYQIILKALERGSLLGCSIDISSVLDMEAITFKKLVKGHAYSVTGAKQVNYRGQVVSLIRMRNPWGEVEWTGAWSDSSSEWNNVDPYERDQLRVKMEDGEFWMSFRDFMREFTRLEICNLTPDALKSRTIRKWNTTLYEGTWRRGSTAGGCRNYPATFWVNPQFKIRLDETDDPDDYGDRESGCSFVLALMQKHRRRERRFGRDMETIGFAVYEVPPELVGQPAVHLKRDFFLANASRARSEQFINLREVSTRFRLPPGEYVVVPSTFEPNKEGDFVLRFFSEKSAGTVELDDQIQANLPDEQVLSEEEIDENFKALFRQLAGEDMEISVKELRTILNRIISKHKDLRTKGFSLESCRSMVNLMDRDGNGKLGLVEFNILWNRIRNYLSIFRKFDLDKSGSMSAYEMRMAIESAGFKLNKKLYELIITRYSEPDLAVDFDNFVCCLVRLETMFRFFKTLDTDLDGVVTFDLFKWLQLTMFA
Recombinant murine IL-10
  amount of IL-10 detected by Western blot: inversely proportional to calpain concentration
